In patent US20170334899A1, “AMINO-SUBSTITUTED ISOTHIAZOLES” (Bayer Pharma Aktiengesellschaft, priority 2014, published 2017) one finds IC50 data, which are given here for 17 compounds.

Assay [1] deals with human cervical tumor cell line HeLa (ATCC CCL-2). Kind of assay: SAC-Formation - Nocodazole-Induced Assay. The class given is cell-based. Conditions: Homo sapiens, HeLa, 24 h, HeLa cells, nocodazole 0.1 μg/ml together with test compound, decrease of mitotic cells (phospho-histone H3 Ser10). Put shortly: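 HeLa cells, plated overnight, were treated 24 h at 37 °C with nocodazole (0.1 μg/ml final) plus test compound (0.005–20 μM, 0.5% DMSO) added at the same time. After fixation, anti-phospho-histone H3 Ser10 and Hoechst staining gave the mitotic cell fraction by imaging. Values came from four-parameter Hill fits.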

The next assay deals with HeLa. Description: Proliferation assay (crystal violet), HeLa. The class given is cell-based. Conditions: Homo sapiens, HeLa, 96 h, HeLa cells; 4 days incubation; crystal violet staining; read-out: IC50 inhibition of proliferation, HeLa. A digest of the protocol: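 Cells plated at 1000-5000/well with 10% FCS, treated after 24 h with compound at 0.001-10 μM (0.5% DMSO) for 4 days. Glutaraldehyde-fixed, crystal violet-stained, A595 normalised to zero-point plate (0%) and untreated cells (100%); IC50 by 4-parameter fit.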

Regarding `Cc1nsc(Nc2cnc(C(F)(F)F)cn2)c1C(=O)Nc1ccc(F)c(OCC2CCCN(CC(F)(F)F)C2)c1` (stereo not shown) [Example 337, N-(4-fluoro-3-{[1-(2,2,2-trifluoroethyl)piperidin-3-yl]methoxy}phenyl)-3-methyl-5-{[5-(trifluoromethyl)pyrazin-2-yl]amino}-1,2-thiazole-4-carboxamide], the IC50 worked out at 61 nM in assay [1] and 370 nM in the assay on HeLa.

On to `Cc1nsc(Nc2cnc(C(F)(F)F)cn2)c1C(=O)Nc1ccc(O[C@H]2CCCN(CC(F)F)C2)nc1` [Example 388, N-(6-{[(3S)-1-(2,2-difluoroethyl)piperidin-3-yl]oxy}pyridin-3-yl)-3-methyl-5-{[5-(trifluoromethyl)pyrazin-2-yl]amino}-1,2-thiazole-4-carboxamide], for which the IC50 was found to be 37 nM in assay [1] and 370 nM with HeLa.

With `Cc1nsc(Nc2cnc(C(F)(F)F)cn2)c1C(=O)Nc1ccc(O[C@H]2CCN(CC(F)(F)F)C[C@@H]2F)nc1` [Example 363, N-(6-{[(3S,4S)-3-fluoro-1-(2,2,2-trifluoroethyl)piperidin-4-yl]oxy}pyridin-3-yl)-3-methyl-5-{[5-(trifluoromethyl)pyrazin-2-yl]amino}-1,2-thiazole-4-carboxamide], the values for the IC50 (in assay [1]; in the assay with HeLa) were 110 nM and 340 nM, respectively.

Take `Cc1nsc(Nc2cnc(C(F)(F)F)cn2)c1C(=O)Nc1ccc(OC[C@@H]2CCCN(CCC(F)(F)F)C2)nc1` [Example 377, 3-methyl-5-{[5-(trifluoromethyl)pyrazin-2-yl]amino}-N-(6-{[(3R)-1-(3,3,3-trifluoropropyl)piperidin-3-yl]methoxy}pyridin-3-yl)-1,2-thiazole-4-carboxamide]: the IC50 in assay [1] turned out to be 40 nM; with HeLa it was 370 nM.

`Cc1nsc(Nc2cnc(C(F)(F)F)cn2)c1C(=O)Nc1ccc(OCC2CCN(CCC(F)(F)F)CC2)nc1` [Example 347, 3-methyl-5-{[5-(trifluoromethyl)pyrazin-2-yl]amino}-N-(6-{[1-(3,3,3-trifluoropropyl)piperidin-4-yl]methoxy}pyridin-3-yl)-1,2-thiazole-4-carboxamide]: the figures for the IC50 (in assay [1]; with HeLa) were 40 nM and 390 nM, respectively.

Turning to `Cc1nsc(Nc2cc(C#N)ccn2)c1C(=O)Nc1ccc(OC2CCCN(C(=O)OC(C)(C)C)C2)nc1` (stereo not shown) [Example 34, tert-Butyl 3({5-[({5-[(4-cyanopyridin-2-yl)amino]-3-methyl-1,2-thiazol-4-yl}-carbonyl)amino]pyridin-2-yl}oxy)piperidine-1-carboxylate], the IC50 in assay [1] stood at 280 nM; with HeLa, 3100 nM.

Consider `Cc1nsc(Nc2cnc(C(F)(F)F)cn2)c1C(=O)Nc1ccc(O[C@H]2CCCN(CC(F)(F)F)C2)nc1` [Example 389, 3-methyl-N-(6-{[(3S)-1-(2,2,2-trifluoroethyl)piperidin-3-yl]oxy}pyridin-3-yl)-5-{[5-(trifluoromethyl)pyrazin-2-yl]amino}-1,2-thiazole-4-carboxamide], for which the IC50 is 93 nM in assay [1] and 310 nM with HeLa.

As to `Cc1nsc(Nc2cnc(C(F)(F)F)cn2)c1C(=O)Nc1ccc(N2CCN(CC(F)F)CC2)nc1` [Example 359, N-{6-[4-(2,2-difluoroethyl)piperazin-1-yl]pyridin-3-yl}-3-methyl-5-{[5-(trifluoromethyl)pyrazin-2-yl]amino}-1,2-thiazole-4-carboxamide], the IC50 in assay [1] was 29 nM; in the assay with HeLa it was 640 nM.

As to `CCN1CC[C@H](Oc2ccc(NC(=O)c3c(C)nsc3Nc3cnc(C(F)(F)F)cn3)cn2)[C@@H](F)C1` [Example 365, N-(6-{[(3S,4S)-1-ethyl-3-fluoropiperidin-4-yl]oxy}pyridin-3-yl)-3-methyl-5-{[5-(trifluoromethyl)pyrazin-2-yl]amino}-1,2-thiazole-4-carboxamide], the IC50 in assay [1] came to 34 nM; in the assay on HeLa it was 410 nM.

Take `Cc1nsc(Nc2cnc(C(F)(F)F)cn2)c1C(=O)Nc1ccc(N2CCN(CCC(F)(F)F)CC2)nc1` [Example 361, 3-methyl-5-{[5-(trifluoromethyl)pyrazin-2-yl]amino}-N-{6-[4-(3,3,3-trifluoropropyl)piperazin-1-yl]pyridin-3-yl}-1,2-thiazole-4-carboxamide]: the IC50 in assay [1] was determined as 68 nM; in the assay with HeLa, 380 nM.

Regarding `Cc1nsc(Nc2cnc(C(F)(F)F)cn2)c1C(=O)Nc1ccc(F)c(OCC2CCCN(CCC(F)(F)F)C2)c1` (stereo not shown) [Example 338, N-(4-fluoro-3-{[1-(3,3,3-trifluoropropyl)piperidin-3-yl]methoxy}phenyl)-3-methyl-5-{[5-(trifluoromethyl)pyrazin-2-yl]amino}-1,2-thiazole-4-carboxamide], the figures for the IC50 (in assay [1]; in the assay on HeLa) were 27 nM and 450 nM, respectively.

Consider `Cc1nsc(Nc2cnc(C(F)(F)F)cn2)c1C(=O)Nc1ccc(OCCNCCC(F)(F)F)nc1` [Example 323, 3-methyl-5-{[5-(trifluoromethyl)pyrazin-2-yl]amino}-N-(6-{2-[(3,3,3-trifluoropropyl)amino]ethoxy}pyridin-3-yl)-1,2-thiazole-4-carboxamide], for which the IC50 in assay [1] amounted to 30 nM; in the assay on HeLa, 950 nM.

Consider `Cc1nsc(Nc2cnc(C(F)(F)F)cn2)c1C(=O)Nc1ccc(O[C@H]2CCN(CC(F)(F)F)C2)nc1` [Example 383, 3-methyl-N-(6-{[(3S)-1-(2,2,2-trifluoroethyl)pyrrolidin-3-yl]oxy}pyridin-3-yl)-5-{[5-(trifluoromethyl)pyrazin-2-yl]amino}-1,2-thiazole-4-carboxamide], for which the IC50 in assay [1] worked out at 27 nM; in the assay on HeLa, 280 nM.

For the compound `CCN1CC[C@@H](Oc2ccc(NC(=O)c3c(C)nsc3Nc3cnc(C(F)(F)F)cn3)cn2)[C@H](F)C1` [Example 369, N-(6-{[(3R,4R)-1-ethyl-3-fluoropiperidin-4-yl]oxy}pyridin-3-yl)-3-methyl-5-{[5-(trifluoromethyl)pyrazin-2-yl]amino}-1,2-thiazole-4-carboxamide], the IC50 in assay [1] stood at 58 nM; in the assay with HeLa, 390 nM.

Turning to `Cc1nsc(Nc2cnc(C(F)(F)F)cn2)c1C(=O)Nc1ccc(F)c(OC[C@H]2CCN(CC(F)(F)F)C2)c1` [Example 398, N-(4-fluoro-3-{[(3S)-1-(2,2,2-trifluoroethyl)pyrrolidin-3-yl]methoxy}phenyl)-3-methyl-5-{[5-(trifluoromethyl)pyrazin-2-yl]amino}-1,2-thiazole-4-carboxamide], the IC50 worked out at 28 nM in assay [1] and 490 nM with HeLa.

On to `Cc1nsc(Nc2cnc(C(F)(F)F)cn2)c1C(=O)Nc1ccc(O[C@H]2CCN(CC(F)F)C2)nc1` [Example 382, N-(6-{[(3S)-1-(2,2-difluoroethyl)pyrrolidin-3-yl]oxy}pyridin-3-yl)-3-methyl-5-{[5-(trifluoromethyl)pyrazin-2-yl]amino}-1,2-thiazole-4-carboxamide], for which the results for the IC50 (in assay [1]; with HeLa) were 24 nM and 180 nM, respectively.

Regarding `Cc1nsc(Nc2cnc(C(F)(F)F)cn2)c1C(=O)Nc1ccc(OCCN(C)CCF)nc1` [Example 348, N-(6-{2-[(2-fluoroethyl)(methyl)amino]ethoxy}pyridin-3-yl)-3-methyl-5-{[5-(trifluoromethyl)pyrazin-2-yl]amino}-1,2-thiazole-4-carboxamide], the IC50 came out at 310 nM in assay [1] and 1000 nM in the assay with HeLa.
